Experimental findings from PMC4549042, “Targeting procaspase-3 with WF-208, a novel PAC-1 derivative, causes selective cancer cell apoptosis” (Journal of Cellular and Molecular Medicine, 2015) are described below.

Structures are written as SMILES. pEC50, pIC50: −log10 of the molar value. Residues, ends and D or L forms follow the SMILES beside them. *: point of attachment. Cbz = O=C(OCc1ccccc1)*; CH2F = FC*

In the first data set the target is T1, rh-procaspase-3 (Homo sapiens, UniProt P42574).
T1 construct: purchased R&D System (Minneapolis, USA)
T1 sequence (P42574 1-277): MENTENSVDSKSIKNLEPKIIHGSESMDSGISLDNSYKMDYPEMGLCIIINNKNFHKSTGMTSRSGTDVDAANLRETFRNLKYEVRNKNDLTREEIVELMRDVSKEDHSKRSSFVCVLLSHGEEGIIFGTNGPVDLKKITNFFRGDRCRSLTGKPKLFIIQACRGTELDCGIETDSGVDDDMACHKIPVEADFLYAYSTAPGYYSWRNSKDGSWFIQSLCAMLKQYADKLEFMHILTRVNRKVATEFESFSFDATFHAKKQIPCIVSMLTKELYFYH
Kind of data set: Caspase-3 activation assay (procaspase-3 activation in vitro). The data set is classed as biochemical. The note with it: rh-procaspase-3, concentrations 0.08–100 μM. As to the method: Procaspase-3 protein was purchased from R&D System (Minneapolis, USA). Procaspase-3 protein was added into 384-well plates. Tested compounds (or DMSO as control) were then added to achieve a final concentration of procaspase-3 of 50 ng/ml. Each plate was incubated for 2 hrs at 37°C. Then caspase-3 peptide substrate (acetyl Asp-Glu-Val-Asp-[…] (Ac-DEVD-pNa), 200 μM) were added. The absorbance of each well was measured at 405 nm in kinetic mode for 10 min [13].
What is called pEC50 is the EC50 on a negative log10 scale, so that one unit is a factor of ten. A high value points to a small EC50. Turning to `C=CCc1cccc(/C=N/NC(=O)CN2CCN(Cc3ccccc3)CC2)c1O` [PAC-1], the pEC50 was 5.22.

The test system of another data set is HL-60 and U-937 cell lines. The data set can be described thus: Western blot of Bcl-2 family and IAP proteins in HL-60 and U-937. The class given is cell-based, human. To be noted: 5 μM MG132 co-treated with 10 μM WF-208, 24 hrs. How it is done:
Approximately 1 × 10^7 HL-60 cells were gathered after pre-treatment with PAC-1 and WF-208 as previously described. The tumour tissue protein was purified according to the reported methods. Western blotting was performed as previously described. All antibodies were purchased from Cell Signaling Technology. In brief, an equal amount of total protein extracts from cultured cells or tissues were fractionated by 10–15% SDS-PAGE and electrically transferred onto polyvinylidene difluoride (PVDF) membranes. Different primary antibodies and corresponding horseradish peroxidase-conjugated secondary antibodies were used to detect the proteins. The bound secondary antibodies on the PVDF membrane were reacted with ECL™ Western Blotting Reagents detection reagents (Thermo Fisher, Rockford, USA) and exposed to X-ray films. Results were normalized to the internal control β-actin.
On to `CC(C)C[C@@H](C=O)NC(=O)[C@H](CC(C)C)NC(=O)[C@H](CC(C)C)NC(=O)OCc1ccccc1` [MG132, reference compound] (Cbz-Leu-Leu-Leu-aldehyde), for which the “effect on down-regulation of XIAP and survivin induced by WF-208” value was “blocked the down-regulation”.

A further data set has as its system PC-3 xenograft. Kind of data set: Human prostatic carcinoma PC-3 xenograft mouse model. The class given is in vivo. The note with it: 2.5 mg/kg i.v., 15 days. As to the method: To determine the anti-tumour activity of WF-208 in vivo, viable human prostate cancer PC-3 cells (5 × 10^6/100 μl PBS per mouse) were subcutaneously (s.c.) injected into the right flank of 7- to 8-week old male SCID mice. When the average tumour volume reached 100 mm^3, mice were randomly divided into various treatment and control group (eight mice per group). Tumour size was measured once every 2 days with a calliper (calculated volume = shortest diameter^2 × longest diameter/2). Body weight, diet consumption and tumour size were recorded once every 2 days. After 2 weeks, mice were killed and tumours were excised and stored at −80°C until further analysis.
Turning to `C=CCc1cccc(/C=N/NC(=O)CN2CCN(Cc3ccccc3)CC2)c1O` [PAC-1], the “influence on body weight” value was “minimal influence” and the “tumour volume compared with control group” value was “no significantly difference”.

Another data set has as its system HL-60 and U-937 cell lines. Kind of data set: Caspase inhibitors on WF-208-induced early apoptosis (Annexin V/PI). The data set is classed as cell-based, human. To be noted: 50 μM inhibitor, 10 μM WF-208, 24 hrs. As to the method:
Compounds were incubated with HL-60 and U-937 cells for 24 hrs. The cells were harvested and double-stained with FITC-Annexin V Apoptosis Detection Kit (BD Biosciences, San Jase, USA). Cells that positively stained with Annexin V and negatively stained with PI were considered to be early apoptotic.
Regarding `COC(=O)CC[C@H](NC(=O)[C@H](CC(C)C)NC(=O)OCc1ccccc1)C(=O)N[C@@H](Cc1cnc[nH]1)C(=O)N[C@@H](CC(=O)OC)C(=O)CF` [Z-LEHD-FMK] (Cbz-LE(OMe)HD(OMe)-CH2F), the “effect of inhibitor on WF-208-induced early apoptosis” value (“effect of inhibitor” below) was “partly inhibit”.

Take `COC(=O)CC[C@H](NC(=O)[C@H](CC(=O)OC)NC(=O)OCc1ccccc1)C(=O)N[C@H](C(=O)N[C@@H](CC(=O)OC)C(=O)CF)C(C)C` [Z-DEVD-FMK]: the “effect of inhibitor” value is “abolish”. Turning to `COC(=O)C[C@H](NC(=O)[C@H](C)NC(=O)[C@@H](NC(=O)OCc1ccccc1)C(C)C)C(=O)CF` [Z-VAD-FMK] (Cbz-Val-Ala-Asp(OMe)-CH2F), the “effect of inhibitor” value is “abolish”.

For another data set, the system named is HL-60 cell line. The data set can be described thus: MTT cell viability assay, HL-60. The data set is classed as cell-based. To be noted: Homo sapiens, 72 hrs. As to the method:
(§1) The cell viability effects of the tested compounds were determined by MTT assay. Cells (1 × 10^4 cells/100 μl/well) were seeded into 96-well culture plates. After overnight incubation, cells were treated with various concentrations of compounds for 72 hrs. Subsequently, 10 μl MTT solution (2.5 mg/ml in PBS) was added to each well, than the cells were incubated for an additional 3–4 hrs at 37°C. After centrifugation (200 × g, 10 min.), the medium with MTT was aspirated, followed by the addition of 100 μl DMSO. The optical density of each well was measured at 570 nm with a Biotek Synergy TM HT Reader.
For orientation: Tetrazolium dyes change colour on reduction, which living cells bring about.
By IC50 is commonly meant the concentration at which inhibition is half-maximal. Take `O=C(CN1CCN(Cc2nc(-c3ccc(COc4ccc(Cl)cc4)cc3)no2)CC1)N/N=C/c1ccc(OCc2cccc(Cl)c2)cc1O` [B12]: the half-maximal inhibitory concentration (IC50) was above 20 µM. On to `C=CCc1cccc(/C=N/NC(=O)CN2CCN(Cc3nc(-c4ccc(COc5ccccc5C(F)(F)F)cc4)no3)CC2)c1O` [A4], for which the half-inhibitory concentration (IC50) came to 0.35 µM. For the compound `O=C(CN1CCN(Cc2nc(-c3ccc(COc4ccccc4C(F)(F)F)cc3)no2)CC1)N/N=C/c1ccc(OCc2cccc(F)c2)cc1O` [B11], the concentration for half-maximal inhibition (IC50) is 1.93 µM. `O=C(CN1CCN(Cc2nc(-c3ccc(COc4ccccc4C(F)(F)F)cc3)no2)CC1)N/N=C/c1ccc(OCc2csc(Cc3ccc4c(c3)OCO4)n2)cc1O` [C1]: the IC50 stood at 1.08 µM. Still for that read-out and setting: the result for `C=CCc1cccc(/C=N/NC(=O)CN2CCN(Cc3ccccc3)CC2)c1O` [PAC-1] reads 2.1 µM; that for `C=CCc1cccc(/C=N/NC(=O)CN2CCN(Cc3nc(-c4ccc(COc5ccc(Cl)cc5)cc4)no3)CC2)c1O` [A1], 0.25 µM; that for `C=CCc1cccc(/C=N/NC(=O)CN2CCN(Cc3nc(-c4ccc(COc5ccc(F)cc5)cc4)no3)CC2)c1O` [A2], 0.39 µM. With `C=CCc1cccc(/C=N/NC(=O)CN2CCN(Cc3nc(-c4ccc(COc5cccc(Cl)c5)cc4)no3)CC2)c1O` [A3], the IC50 stood at 0.4 µM. Consider `O=C(CN1CCN(Cc2nc(-c3ccc(COc4ccc(F)c(F)c4)cc3)no2)CC1)N/N=C/c1ccc(OCc2ccc(Cl)cc2)cc1O` [B8], for which the IC50 is 0.3 µM. `O=C(CN1CCN(Cc2nc(-c3ccc(COc4ccc(F)cc4)cc3)no2)CC1)N/N=C/c1ccc(OCc2ccc(Cl)cc2Cl)cc1O` [B2]: the IC50 amounted to 1.02 µM. Regarding `O=C(CN1CCN(Cc2nc(-c3ccc(COc4ccc(Cl)cc4)cc3)no2)CC1)N/N=C/c1ccc(OCc2ccc(Cl)cc2Cl)cc1O` [B5], the concentration for half-maximal inhibition (IC50) is 1.07 µM. The same measure, in the same setting: the result for `O=C(CN1CCN(Cc2nc(-c3ccc(COc4ccc(F)c(F)c4)cc3)no2)CC1)N/N=C/c1ccc(OCc2ccc(Cl)cc2Cl)cc1O` [B9] reads 0.41 µM; that for `CC(C)(C)c1ccc(COc2ccc(/C=N/NC(=O)CN3CCN(Cc4nc(-c5ccc(COc6ccc(F)cc6)cc5)no4)CC3)c(O)c2)cc1` [B6], 0.6 µM; that for `CC(C)(C)c1ccc(COc2ccc(/C=N/NC(=O)CN3CCN(Cc4nc(-c5ccc(COc6ccccc6C(F)(F)F)cc5)no4)CC3)c(O)c2)cc1` [B10], 0.4 µM. With `O=C(CN1CCN(Cc2nc(-c3ccc(COc4ccc(Cl)cc4)cc3)no2)CC1)N/N=C/c1ccc(OCc2ccccc2)cc1O` [B1], the concentration for half-maximal inhibition (IC50) was 1.26 µM. Consider `O=C(CN1CCN(Cc2nc(-c3ccc(COc4ccc(F)c(F)c4)cc3)no2)CC1)N/N=C/c1ccc(OCc2ccccc2)cc1O` [B7], for which the half-maximal inhibitory concentration (IC50) stood at 0.34 µM. Still for that read-out and setting: to `O=C(CN1CCN(Cc2nc(-c3ccc(COc4ccc(F)cc4)cc3)no2)CC1)N/N=C/c1ccc(OCc2cccc(C(F)(F)F)c2)cc1O` [B3] belongs 0.98 µM; to `CC(C)(C)c1ccc(COc2ccc(/C=N/NC(=O)CN3CCN(Cc4nc(-c5ccc(COc6ccc(Cl)cc6)cc5)no4)CC3)c(O)c2)cc1` [B4], 0.67 µM.

The subject of the next data set is mouse primary cortical cell. The data set can be described thus: Cytotoxicity in mouse primary cortical neuron cells. The data set is classed as cell-based. To be noted: neurotoxicity. As to the method: as §1
Broadly, the pIC50 is the IC50 on a negative log10 scale, so that one unit is a factor of ten. As for `C=CCc1cccc(/C=N/NC(=O)CN2CCN(Cc3ccccc3)CC2)c1O` [PAC-1], the negative logarithm of the IC50 (pIC50) was 4.30.
